# Reference: US10098347B2, “Methods of improving growth and stress tolerance in plants” (Valent BioSciences LLC, priority 2016, dated 2018)
# How the values were obtained:
# Assay type in all cases: in vivo
# [1] = tested on: Italian large leaf basil (Ocimum basilicum) seedlings; assay: Chilling tolerance assay in basil seedlings (24-well plates)
# Experimental: To determine the capacity of glycine betaine (“GB”) to confer thermo-tolerance, both singly and in combination with (S)-abscisic acid (“(S)-ABA”), chilling (i.e. cold) tolerance assays were performed using Italian large leaf basil (Ocimum basilicum) seedlings. Basil seeds were sterilized in an ethanol solution containing 0.16% Maxim® XL fungicide (Maxim is a registered trademark of and available from Syngenta Corporation). The sterilized seeds were germinated on ½×Murashige and Skoog Basal Salt Media, supplemented with 1× Gamborg's Vitamins and 0.6% Phytagar, and dispensed into 24-well plates. […]
# After five days, concentrated solutions of GB and/or (S)-ABA were added as an overlay in 0.4% Phytagar. […] The seedlings were subjected to chilling stress for six days, after which time they were transferred back to the ambient temperature chamber, and scored after a six-day recovery period.
# Individual wells contained indicated amounts of GB and/or (S)-ABA. […] GB was evaluated singly at concentrations of 0, 3,000, 10,000, 30,000, and 100,000 milligrams per liter (“mg/l”.) To test whether there was a synergistic interaction between GB and (S)-ABA, glycine betaine was added to the media at concentrations of 0, 1,000, 3,000, 10,000, and 30,000 mg/l, whereas (S)-ABA was held at a concentration of 3 mg/l. […]
# [2] = tested on: Cucumber (Cucumis sativa var. Straight Eight); assay: Post-chilling damage in cucumber following spray treatment
# Experimental: A laboratory study was conducted at Long Grove, Ill. Cucumber (Cucumis sativa var. Straight Eight) seeds were sown in Pro-Mix® BX potting soil (Pro-Mix is a registered trademark of and available from Premier Horticulture Ltd.) and plants were grown in a CONVIRON® growth chamber at 25° C. under a 16:8 (light:dark) photoperiod. At 15 days post-sowing, plants were subjected to sprays with a portable Preval® paint sprayer. All spray solutions were made up in deionized water and a non-ionic surfactant was added to all spray solutions at 0.05% (v/v). At 48 hours post-spraying, plants were moved to a CONVIRON® growth chamber and subjected to a temperature of 4° C. for 48 hours under a 12:12 (light:dark) photoperiod. Upon removal from the cold chamber, plants were returned to a CONVIRON® growth chamber set at 25° C. under a 16:8 (light:dark) photoperiod. The plants were visually scored for chilling damage at 72 hours post-chilling. Each treatment was replicated seven times. […] Using the following formula, Applicant was able to determine that the response to the GB:(S)-ABA ratio was synergistic, in which a synergy factor is calculated by the […]: % Cexp=A+B−(AB/100), where % Cexp is the expected efficacy and “in which A and B are the increase in growth (or resistance to stress) levels given by the single [plant growth regulators]. If the ratio between the experimentally observed efficacy of the mixture Cobs and the expected efficacy of the mixture is greater than 1, synergistic interactions are present in the mixture” (Gisi, Synergistic Interaction of Fungicides in Mixtures, The American Phytopathological Society, 86:11, 1273-1279, 1996). To be conservative Applicant has set the minimum synergy factor to 1.1 throughout the Examples. Applicant determined synergy to be present at the following ratios of GB:(S)-ABA: 1:1 (synergy factor 3.74); 3.3:1 (synergy factor 2.68) and 10:1 (synergy factor 1.24).
# Italian sweet basil [3] = assay: Chilling damage of Italian sweet basil following spray treatment (Example 3)
# Experimental: (§1) A laboratory study was conducted at Long Grove, Ill. Italian sweet basil seeds were sown in Pro-Mix® BX potting soil and plants were grown at room temperature under cool-white fluorescent lights under a 16:8 (light:dark) photoperiod. At 22 days post-sowing, plants were subjected to sprays with a portable Preval® paint sprayer. At 48 hours post-spraying, plants were moved to a CONVIRON® growth chamber and subjected to a temperature of 4° C. for 72 hours under a 12:12 (light:dark) photoperiod. Upon removal from the cold chamber, plants were returned to the laboratory and placed again under the cool white fluorescent lamps until they were visually scored for chilling damage at 24 hours and 72 hours post-chilling. Each treatment was replicated seven times.
# Italian sweet basil [4] = assay: Chilling damage of Italian sweet basil following spray treatment (Example 4)
# Experimental: as §1, with “the cool-white” for “the cool white”, “and 120” for “and 72”
# Corn = assay: Stomatal conductance of corn following spray; details: for % of Control Conductance 4 days: 4 days post-spray; for % of Control Conductance 3 days: 3 days post-spray
# Experimental: A greenhouse study was conducted at Long Grove, Ill. Seeds of a commercial hybrid variety were sown in Pro-Mix® BX in three-liter pots. Greenhouses were kept at 25±3° C. under a 16:8 hour (light:dark) photoperiod, with illumination at canopy level of ˜250 μmoles m-2 s-1. Corn was typically fertigated with Peters 21-5-20+ micronutrients, calcium ammonium nitrate and magnesium sulfate. Typical growth rates for corn under these conditions ranged from 4 to 5 centimeters per day.
# In this study, spray applications were made to corn at stage V4. These applications were made in a track sprayer outfitted with a 4001E Teejet® nozzle (Teejet is available from and a registered trademark of Spraying Systems Co., Glendale Heights, Ill., USA) and applied at 40 pounds per square inch and at 30 gallons/acre of spray solution. Following spray applications, plants were returned to the greenhouse.
# At 3 and 4-days post spray application, stomatal conductance of the 4th true leaf was measured using a Licor Model 6400 XT photosynthesis meter (Licor, Lincoln, Neb.) used according to the manufacturer's directions. For ease of analysis, stomatal conductance values are expressed as a percent of control in Table 5 below.
# [5] = single agent spray 300 mg/l, 72 hours post-chilling (4° C. 48 h)
# [6] = single agent spray 300 mg/l, 4° C. 72 h
compound,measurement,setting,value
"CC1=CC(=O)CC(C)(C)[C@@]1(O)/C=C/C(C)=C/C(=O)O [(S)-ABA, (S)-abscisic acid]",Chilling injury,[1]; 20 ppm (S)-ABA alone (positive control),“++” denotes little to no chilling injury; equivalent to 20 ppm (S)-ABA alone
same,% Leaf Area Damaged,[2]; [5],52.9%
same,% Leaf Area Damaged 72 h post-chilling,Italian sweet basil [3]; single agent spray 300 mg/l,27%
same,% Leaf Area Damaged 24 h post-chilling,Italian sweet basil [3]; [6],12%
same,% Leaf Area Damaged 24 h post-chilling,"Italian sweet basil [3]; single agent spray 1,000 mg/l",6%
same,% Leaf Area Damaged 72 h post-chilling,"Italian sweet basil [3]; single agent spray 1,000 mg/l",14%
same,% Leaf Area Damaged 120 h post-chilling,Italian sweet basil [4]; single agent spray 300 mg/l,41.00%
same,% Leaf Area Damaged 24 h post-chilling,Italian sweet basil [4]; [6],23.00%
same,% Leaf Area Damaged 24 h post-chilling,"Italian sweet basil [4]; single agent spray 1,000 mg/l",11.67%
same,% Leaf Area Damaged 120 h post-chilling,"Italian sweet basil [4]; single agent spray 1,000 mg/l",21.67%
same,% of Control Conductance 4 days,Corn; single agent spray 100 mg/l,91.8 % of Control
same,% of Control Conductance 3 days,"Corn; single agent spray 100 mg/l, corn stage V4, 4th true leaf",81.3 % of Control
same,% of Control Conductance 3 days,Corn; single agent spray 300 mg/l,73.6 % of Control
same,% of Control Conductance 4 days,Corn; single agent spray 300 mg/l,88.7 % of Control
same,% of Control Conductance 3 days,"Corn; single agent spray 1,000 mg/l",76.5 % of Control
same,% of Control Conductance 4 days,"Corn; single agent spray 1,000 mg/l",95.9 % of Control
same,% of Control Conductance 3 days,"Corn; single agent spray 3,000 mg/l",55.3 % of Control
same,% of Control Conductance 4 days,"Corn; single agent spray 3,000 mg/l",77.5 % of Control
"C[N+](C)(C)CC(=O)[O-] [GB, Glycine betaine]",Protection against chilling injury,"[1]; 30,000 mg/l GB alone",equivalent protection as ˜20 mg/l (S)-ABA
same,% Leaf Area Damaged,[2]; [5],84.3%
same,% Leaf Area Damaged,"[2]; single agent spray 1,000 mg/l, 72 hours post-chilling",82.1%
same,% Leaf Area Damaged,"[2]; single agent spray 3,000 mg/l, 72 hours post-chilling",46.4%
same,% Leaf Area Damaged 24 h post-chilling,"Italian sweet basil [3]; single agent spray 3,000 mg/l",67%
same,% Leaf Area Damaged 72 h post-chilling,"Italian sweet basil [3]; single agent spray 3,000 mg/l",79%
same,% Leaf Area Damaged 24 h post-chilling,"Italian sweet basil [3]; single agent spray 20,000 mg/l",45%
same,% Leaf Area Damaged 72 h post-chilling,"Italian sweet basil [3]; single agent spray 20,000 mg/l",65%
same,% Leaf Area Damaged 24 h post-chilling,"Italian sweet basil [4]; single agent spray 10,000 mg/l",39.17%
same,% Leaf Area Damaged 120 h post-chilling,"Italian sweet basil [4]; single agent spray 10,000 mg/l",56.67%
same,% Leaf Area Damaged 24 h post-chilling,"Italian sweet basil [4]; single agent spray 30,000 mg/l",40.00%
same,% Leaf Area Damaged 120 h post-chilling,"Italian sweet basil [4]; single agent spray 30,000 mg/l",50.00%
same,% of Control Conductance 3 days,"Corn; single agent spray 1,000 mg/l",86.2 % of Control
same,% of Control Conductance 4 days,"Corn; single agent spray 1,000 mg/l",97.9 % of Control
